Where two headings read alike, the source gives them in different places.
Legend:
HIV-1 94ZW103 = assay type: cell-based
Protocol: (§1) PBMC Infectivity Assay. PBMC were isolated from healthy blood donors by Ficoll-Hypaque centrifugation and then stimulated for 2-3 days with phytohemagglutinin (5 μg/ml) and interleukin-2 (100 U/ml). The inhibition assay was performed essentially as described previously (Trkola, A., T. Ketas, V. N. KewalRamani, F. Endorf, J. M. Binley, H. Katinger, J. Robinson, D. R. Littman, and J. P. Moore. 1998. Neutralization sensitivity of human immunodeficiency virus type 1 primary isolates to antibodies and CD4-based reagents is independent of co-receptor usage. J. Virol. 72:1876-1885; Trkola, A., W. A. Paxton, S. P. Monard, J. A. Hoxie, M. A. Siani, D. A. Thompson, L. Wu, C. R. Mackay, R. Horuk, and J. P. Moore. 1998. Genetic subtype-independent inhibition of human immunodeficiency virus type 1 replication by CC and CXC chemokines. J. Virol. 72:396-404).
(§2) Briefly, the virus inoculum was adjusted to 400-1,000 TCID50/ml in assay medium (RPMI 1640, 10% FCS, 100 U of interleukin-2 per ml, glutamine, and peptides), and 50 μl aliquots were incubated with serial dilutions of the peptide inhibitors (50 μl) for 1 h at 37° C. […] RBMC (4×10^5 in 100 μl of medium) were then added. The final concentration of virus in the cultures was 20-50 TCID50/well, corresponding to 100-250 TCID50/ml. Peptides, virus, and cells were then incubated for 5-7 days at 37° C., and the extent of viral replication was determined by p24 antigen ELISA of the culture supernatants. The viral inocula in 50% tissue culture infectious doses (TCID50) were 400-1000/ml.

HIV-1 BZ162 = assay type: cell-based; conditions: human PBMC, 5-7 days, p24 ELISA; second line of the isolate = second separate assay; read-out: Antiviral activity IC50, HIV-1 BZ162
Protocol: as §1, §2

HIV-1 CM.235 = assay type: cell-based; conditions: human PBMC, 5-7 days, p24 ELISA; second line of the isolate = second separate assay; read-out: Antiviral activity IC50, HIV-1 CM.235
Protocol: as §1, §2

HIV-1 Case C 7/86 = assay type: cell-based; conditions: human PBMC, 5-7 days, p24 ELISA; second line of the isolate = second separate assay; read-out: Antiviral activity IC50, HIV-1 Case C 7/86
Protocol: as §1, §2

HIV-1 DJ258 = assay type: cell-based; conditions: human PBMC, 5-7 days, p24 ELISA; second line of the isolate = second separate assay; read-out: Antiviral activity IC50, HIV-1 DJ258
Protocol: as §1, §2

HIV-1 JFRL = assay type: cell-based
Protocol: as §1, §2

HIV-1 NL4-3 = assay type: cell-based
Protocol: as §1, §2

HIV-1 UG270 = assay type: cell-based
Protocol: as §1, §2

[1] = Circular dichroism spectroscopy; assay type: physicochemical; conditions: 10 μM peptide, 50 mM Tris-HCl (pH 8.0), 10 mM NaCl, 4° C.
Protocol: CD measurements of the peptides were carried out on an Aviv 62 DS circular dichroism spectrometer (Aviv Biomedical, Lakewood, N.J.). Peptides were dissolved in 50 mM Tris-HCl (pH 8.0) and 10 mM NaCl with a total peptide concentration of 10 μM. The wavelength dependence of molar ellipticity, [θ], was monitored at 4° C. as the average of five scans, using a five-second integration time at 1.0 nm wavelength increments. Spectra were baseline-corrected against the cuvette with buffer alone. […] Thermal stability was determined by monitoring the change in CD signal at 222 nm as a function of temperature, and thermal melts were performed in two-degree intervals with a two-minute equilibration at the desired temperature, and an integration time of 30 s. Reversibility was checked by repeated scans.

[2] = human PBMC, 5-7 days, p24 ELISA, second line of the isolate = second separate assay, read-out: Antiviral activity IC50, HIV-1 94ZW103
[3] = human PBMC, 5-7 days, p24 ELISA, second line of the isolate = second separate assay, read-out: Antiviral activity IC50, HIV-1 JFRL
[4] = human PBMC, 5-7 days, p24 ELISA, second line of the isolate = second separate assay, read-out: Antiviral activity IC50, HIV-1 NL4-3
[5] = human PBMC, 5-7 days, p24 ELISA, second line of the isolate = second separate assay, read-out: Antiviral activity IC50, HIV-1 UG270

Compound	IC50 (HIV-1 94ZW103; [2]) [nM]	IC50 (HIV-1 BZ162) [nM]	IC50 (HIV-1 CM.235) [nM]	IC50 (HIV-1 Case C 7/86) [nM]	IC50 (HIV-1 DJ258) [nM]	IC50 (HIV-1 JFRL; [3]) [nM]	IC50 (HIV-1 NL4-3; [4]) [nM]	IC50 (HIV-1 UG270; [5]) [nM]	Structure in solution by circular dichroism [1]	IC50 (HIV-1 94ZW103; 94ZW103) [nM]	IC50 (HIV-1 JFRL; JFRL) [nM]	IC50 (HIV-1 NL4-3; NL4-3) [nM]	IC50 (HIV-1 UG270; UG270) [nM]
CC[C@H](C)[C@H](NC(=O)[C@H](CCCCN)NC(=O)[C@@H](NC(=O)[C@H](CC(N)=O)NC(=O)[C@H](Cc1ccccc1)NC(=O)[C@H](Cc1c[nH]c2ccccc12)NC(=O)[C@H](CC(N)=O)NC(=O)[C@H](Cc1c[nH]c2ccccc12)NC(=O)[C@H](CC(C)C)NC(=O)[C@H](CO)NC(=O)[C@H](C)NC(=O)[C@H](Cc1c[nH]c2ccccc12)NC(=O)[C@H](CCCCN)NC(=O)[C@H](CC(=O)O)NC(=O)[C@H](CC(C)C)NC(=O)[C@H](CCC(=O)O)NC(=O)[C@H](CC(C)C)NC(=O)[C@H](CC(C)C)NC(=O)[C@H](CCC(=O)O)NC(=O)[C@H](CCC(N)=O)NC(=O)[C@H](CCC(=O)O)NC(=O)[C@H](CC(N)=O)NC(=O)[C@H](CCCCN)NC(=O)[C@H](CCC(=O)O)NC(=O)[C@H](CCC(N)=O)NC(=O)[C@H](CC(C)C)NC(=O)[C@H](CC(N)=O)NC(=O)[C@H](CCC(N)=O)NC(=O)[C@H](CO)NC(=O)[C@H](CCC(=O)O)NC(=O)[C@H](CCC(=O)O)NC(=O)[C@@H](NC(=O)[C@H](CC(C)C)NC(=O)[C@H](CO)NC(=O)[C@H](Cc1c[nH]cn1)NC(=O)[C@@H](NC(=O)[C@H](CC(C)C)NC(=O)[C@H](CO)NC(=O)[C@@H](NC(=O)[C@H](Cc1ccc(O)cc1)NC(=O)[C@H](CC(N)=O)NC(=O)[C@H](CC(N)=O)NC(=O)[C@@H](NC(=O)[C@H](CCC(=O)O)NC(=O)[C@H](CCCNC(=N)N)NC(=O)[C@H](CC(=O)O)NC(=O)[C@H](Cc1c[nH]c2ccccc12)NC(=O)[C@H](CCC(=O)O)NC(=O)[C@H](CCSC)NC(=O)[C@H](Cc1c[nH]c2ccccc12)NC(=O)[C@@H](NC(=O)[C@@H](NC(=O)[C@H](Cc1c[nH]cn1)NC(=O)[C@@H](N)CC(N)=O)[C@@H](C)O)[C@@H](C)O)[C@@H](C)CC)[C@@H](C)O)[C@@H](C)CC)[C@@H](C)CC)[C@@H](C)CC)C(=O)N[C@@H](CCCCN)C(=O)O [Peptide C52F, NHTTWMEWDREINNYTSLIHSLIEESQNLQEKNEQELLELDKWASLWNWFNI-KIK]	4	2	11	49	9	5	23	68	forms an α-helical structure in solution				
CC[C@H](C)[C@H](NC(=O)[C@H](CCCCN)NC(=O)[C@@H](NC(=O)[C@H](CC(N)=O)NC(=O)[C@H](Cc1ccccc1)NC(=O)[C@H](Cc1c[nH]c2ccccc12)NC(=O)[C@H](CC(N)=O)NC(=O)[C@H](Cc1c[nH]c2ccccc12)NC(=O)[C@H](CC(C)C)NC(=O)[C@H](CO)NC(=O)[C@H](C)NC(=O)[C@H](Cc1c[nH]c2ccccc12)NC(=O)[C@H](CCCCN)NC(=O)[C@H](CC(=O)O)NC(=O)[C@H](CC(C)C)NC(=O)[C@H](CCC(=O)O)NC(=O)[C@H](Cc1ccccc1)NC(=O)[C@H](CC(C)C)NC(=O)[C@H](CCC(=O)O)NC(=O)[C@H](CCC(N)=O)NC(=O)[C@H](CCC(=O)O)NC(=O)[C@H](C)NC(=O)[C@H](CCCCN)NC(=O)[C@H](CCC(=O)O)NC(=O)[C@H](CCC(N)=O)NC(=O)[C@H](CC(C)C)NC(=O)[C@H](CC(N)=O)NC(=O)[C@H](CCC(N)=O)NC(=O)[C@H](CO)NC(=O)[C@H](CCC(=O)O)NC(=O)[C@H](CCC(=O)O)NC(=O)[C@H](Cc1ccccc1)NC(=O)[C@H](CC(C)C)NC(=O)[C@H](CO)NC(=O)[C@H](Cc1c[nH]cn1)NC(=O)[C@@H](NC(=O)[C@H](CC(C)C)NC(=O)[C@H](CO)NC(=O)[C@@H](NC(=O)[C@H](Cc1ccc(O)cc1)NC(=O)[C@H](CC(N)=O)NC(=O)[C@H](CC(N)=O)NC(=O)[C@@H](NC(=O)[C@H](CCC(=O)O)NC(=O)[C@H](CCCNC(=N)N)NC(=O)[C@H](CC(=O)O)NC(=O)[C@H](Cc1c[nH]c2ccccc12)NC(=O)[C@H](CCC(=O)O)NC(=O)[C@H](CCSC)NC(=O)[C@H](Cc1c[nH]c2ccccc12)NC(=O)[C@@H](NC(=O)[C@@H](NC(=O)[C@H](Cc1c[nH]cn1)NC(=O)[C@@H](N)CC(N)=O)[C@@H](C)O)[C@@H](C)O)[C@@H](C)CC)[C@@H](C)O)[C@@H](C)CC)[C@@H](C)CC)C(=O)N[C@@H](CCCCN)C(=O)O [Peptide C52L, NHTTWMEWDREINNYTSLIHSLFEESQNLQEKAEQELFELDKWASLWNWFNI-KIK]	3	3	12	17	11	6	20	61	forms an α-helical structure in solution				
Enfuvirtide										18	10	44	139

Source: patent US20070134221A1, “Stabilizing peptides” (priority 2003, published 2007)
